Laboratory results published in patent publication US20240366801A1, “HYPERPO[…] AND PRODUCT” (CAMBRIDGE ENTERPRISE LIMITED, priority 2021, published 2024).

Test system: rat liver
Test: 13C MR spectra in rat liver after intravenous injection of hyperpolarised solution
Settings: 1 ml of 42 mM solution, 9.4T MRI
Text: The data was acquired in preclinical horizontal-bore 9.4T MRI system using a 10-mm diameter 13C surface coil and a series of 20-degree radiofrequency pulses applied every 2 s.

With CC(O)[13C](=O)O (stereo not shown) [[1-13C]lactate, [1-13C]lactic acid] the “downstream metabolites detected in 13C MR spectra” value was “downstream metabolites could be detected”.
